Inhibition and IC50 data for 23 compounds are collected here from patent US20140045832A1, “Insulin-Like Growth Factor-1 Receptor Inhibitors” (PIRAMAL ENTERPRISES LIMITED, priority 2011, published 2014).

Structures are written as SMILES.

One data set has as its target T1, CYP3A4 (Homo sapiens, UniProt P08684).
T1 construct: purchased Invitrogen (Vivid screening kits)
Briefly: CYP inhibition fluorescence assay (rhCYP450, Vivid Invitrogen kit). The format is in vitro ADME. The conditions noted are these: recombinant human CYP3A4, 10 μM compound, read-out: % inhibition of CYP 3A4 at 10 μM. The protocol:
The % inhibition @ 10 μM data was generated from an rhCYP450/fluorescence assay according to the Vivid Invitrogen screening kits. The compounds were screened against CYP 3A4 isoform because CYP3A4 is responsible for the metabolism of approximately 50-60% of clinical drugs. The lower the percentage inhibition, the lower the CYP450 inhibitory liability of that specific compound.

The next data set concerns the target T2, human IGF-1R (Homo sapiens, UniProt P08069).
T2 construct: IGFRK and IRK enzyme used for the assay was intracellular kinase domain of human IGF-1R and human IR; made in house
Briefly: In vitro IGF-1R kinase assay (HTRF). The format is biochemical. The conditions noted are these: intracellular kinase domain GST fusion, ATP 20 μM, 1 hour at 23° C., read-out: IGFIR-Activity. On the procedure:
The in vitro kinase assays using IGF-1R and IR kinase GST fusion proteins were conducted using a homogeneous time-resolved fluorescence (HTRF) format. […] The standard enzyme reaction buffer consisted of 50 mM Tris HCL (pH: 7.4), 1 mM EGTA, 10 mM MgCl2, 2 mM DTT, 0.01% Tween-20, IGF-1R/IR kinase enzyme, poly GT peptide substrate (Perkin Elmer [Ulight Glu-Tyr (4:1)]n) and ATP [concentration equivalent to Kmapp]. […] Briefly, 2.5 μL enzyme and 2.5 μL inhibitor was pre-incubated for 10 minutes at 23° C. followed by the addition of 2.5 μL of poly GT substrate (final concentration of 50 nM). Reaction was initiated with the addition of 2.5 μL of ATP (final concentration of 20 μM for IGF-1R assay and 10 μM for IR assay). After 1 hour incubation at 23° C., the kinase reaction was stopped with the addition of 5 μL EDTA (final concentration of 10 mM in 20 μL). Europium cryptate—labeled antiphosphotyrosine antibody PY20 (5 μL) was added (final concentration of 2 nM) and the mixture was allowed to equilibrate for 1 hour at 23° C. followed by reading the plate in an Envision plate reader. The intensity of light emission at 665 nm was directly proportional to the level of substrate phosphorylation. The IC50 values for inhibitors were determined by a four-parameter sigmoidal curve fit (Sigma plot or Graph pad).
IGFRK and IRK enzyme used for the assay was intracellular kinase domain of human IGF-1R and human IR cloned and expressed as GST fusion proteins using the baculovirus expression system and purified using glutathione—Sepharose column.
A general note: In TR-FRET formats the signal depends on donor and acceptor labels being close together.

T1 sequence (P08684 whole entry): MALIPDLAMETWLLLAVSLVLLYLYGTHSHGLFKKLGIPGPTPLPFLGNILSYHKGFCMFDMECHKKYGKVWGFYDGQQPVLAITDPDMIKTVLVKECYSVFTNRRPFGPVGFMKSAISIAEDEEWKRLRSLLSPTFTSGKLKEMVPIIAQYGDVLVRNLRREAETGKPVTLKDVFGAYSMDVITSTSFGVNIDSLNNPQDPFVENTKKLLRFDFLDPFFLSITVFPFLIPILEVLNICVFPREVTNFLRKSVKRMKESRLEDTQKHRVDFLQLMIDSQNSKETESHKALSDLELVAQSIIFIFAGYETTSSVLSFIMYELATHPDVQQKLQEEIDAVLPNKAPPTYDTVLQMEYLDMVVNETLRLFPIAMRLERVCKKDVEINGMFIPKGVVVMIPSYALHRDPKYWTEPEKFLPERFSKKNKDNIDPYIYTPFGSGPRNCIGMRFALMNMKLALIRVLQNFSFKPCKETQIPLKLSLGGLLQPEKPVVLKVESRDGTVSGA
T2 sequence (P08069 999-1274 limits assumed): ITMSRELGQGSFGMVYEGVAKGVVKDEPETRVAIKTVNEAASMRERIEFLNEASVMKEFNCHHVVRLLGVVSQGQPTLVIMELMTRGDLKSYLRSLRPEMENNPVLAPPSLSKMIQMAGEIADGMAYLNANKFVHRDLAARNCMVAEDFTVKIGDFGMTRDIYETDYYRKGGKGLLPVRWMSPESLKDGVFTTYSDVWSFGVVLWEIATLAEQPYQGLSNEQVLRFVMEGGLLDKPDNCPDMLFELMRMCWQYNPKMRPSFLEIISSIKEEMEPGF

Consider `NC(=O)c1[nH]c2c(NC(=O)CCC(=O)O)cc(Cl)cc2c1S(=O)(=O)N1CCO[C@H](COc2ccccc2)C1` [Compound 8, (S)-4-(2-carbamoyl-5-chloro-3-(2-(phenoxymethyl)morpholinosulfonyl)-1H-indol-7-ylamino)-4-oxobutanoic acid], for which the inhibition – broadly, the share of the control response that was lost under treatment – at 10 µM at CYP3A4 came out at 0%. Also, the IC50 on human IGF-1R was determined as 6.6 nM.
On to `CC(C)(CC(=O)O)CC(=O)Nc1cc(Cl)cc2c(S(=O)(=O)N3CCO[C@H](COc4ccccc4)C3)c(C(N)=O)[nH]c12` [Compound 9, (S)-5-(2-carbamoyl-5-chloro-3-(2-(phenoxymethyl)morpholinosulfonyl)-1H-indol-7-ylamino)-3,3-dimethyl-5-oxopentanoic acid], for which the IC50 on human IGF-1R is 55.8 nM.
Same read-out and setting: the result for `CC(C)(CC(=O)Nc1cc(Cl)cc2c(S(=O)(=O)N3CCO[C@H](COc4ccccc4)C3)c(C(N)=O)[nH]c12)C(=O)O` [Compound 10, (S)-4-(2-carbamoyl-5-chloro-3-(2-(phenoxymethyl)morpholinosulfonyl)-1H-indol-7-ylamino)-2,2-dimethyl-4-oxobutanoic acid] reads 29.9 nM.
As to `NC(=O)c1[nH]c2c(NC(=O)CCCC(=O)O)cc(Cl)cc2c1S(=O)(=O)N1CCO[C@H](COc2ccccc2)C1` [Compound 11, (S)-5-(2-carbamoyl-5-chloro-3-(2-(phenoxymethyl)morpholinosulfonyl)-1H-indol-7-ylamino)-5-oxopentanoic acid], the inhibition at 10 µM on CYP3A4 turned out to be 15%. Further, the IC50 at human IGF-1R came to 10 nM.
Taken in the same sequence, the figures for `NC(=O)c1[nH]c2c(NC(=O)CCCC(=O)N3CCOCC3)cc(Cl)cc2c1S(=O)(=O)N1CCO[C@H](COc2ccccc2)C1` [Compound 13, (S)-5-chloro-7-(5-morpholino-5-oxopentanamido)-3-(2-(phenoxymethyl)morpholinosulfonyl)-1H-indole-2-carboxamide] were 46% and 7.6 nM.
Consider `N#CCC(=O)Nc1cc(Cl)cc2c(S(=O)(=O)N3CCO[C@H](COc4ccccc4)C3)c(C(N)=O)[nH]c12` [Compound 14, (S)-5-chloro-7-(2-cyanoacetamido)-3-(2-(phenoxymethyl)morpholinosulfonyl)-1H-indole-2-carboxamide], for which the IC50 on human IGF-1R is > 100 nM.
On the same count and under the same terms, the result for `CCOC(=O)CCCC(=O)Nc1cc(Cl)cc2c(S(=O)(=O)N3CCO[C@H](COc4ccccc4)C3)c(C(N)=O)[nH]c12` [Compound 15, (S)-ethyl 5-(2-carbamoyl-5-chloro-3-(2-(phenoxymethyl)morpholinosulfonyl)-1H-indol-7-ylamino)-5-oxopentanoate] reads < 100 nM; that for `NC(=O)c1[nH]c2c(NCCC(=O)O)cc(Cl)cc2c1S(=O)(=O)N1CCO[C@H](COc2ccccc2)C1` [Compound 16, (S)-3-(2-carbamoyl-5-chloro-3-(2-(phenoxymethyl)morpholinosulfonyl)-1H-indol-7-ylamino)propanoic acid], 2.6 nM; that for `NC(=O)CCNc1cc(Cl)cc2c(S(=O)(=O)N3CCO[C@H](COc4ccccc4)C3)c(C(N)=O)[nH]c12` [Compound 17, (S)-7-(3-amino-3-oxopropylamino)-5-chloro-3-(2-(phenoxymethyl)morpholinosulfonyl)-1H-indole-2-carboxamide], 11.5 nM.
Regarding `CCOC(=O)CCCNc1cc(Cl)cc2c(S(=O)(=O)N3CCO[C@H](COc4ccccc4)C3)c(C(N)=O)[nH]c12` [Compound 18, (S)-ethyl 4-(2-carbamoyl-5-chloro-3-(2-(phenoxymethyl)morpholinosulfonyl)-1H-indol-7-ylamino)butanoate], the IC50 on human IGF-1R was > 100 nM.
On the same count and under the same terms, the result for `NC(=O)c1[nH]c2c(NC3CCCCC3)cc(Cl)cc2c1S(=O)(=O)N1CCO[C@H](COc2ccccc2)C1` [Compound 21, (S)-5-chloro-7-(cyclohexylamino)-3-(2-(phenoxymethyl)morpholinosulfonyl)-1H-indole-2-carboxamide] reads > 100 nM; that for `NC(=O)c1[nH]c2c(NCC3CCCCC3)cc(Cl)cc2c1S(=O)(=O)N1CCO[C@H](COc2ccccc2)C1` [Compound 22, (S)-5-chloro-7-(cyclohexylmethylamino)-3-(2-(phenoxymethyl)morpholinosulfonyl)-1H-indole-2-carboxamide], > 100 nM.
Same read-out and setting: the result for `NC(=O)c1[nH]c2c(NC3CCCC3)cc(Cl)cc2c1S(=O)(=O)N1CCO[C@H](COc2ccccc2)C1` [Compound 24, (S)-5-chloro-7-(cyclopentylamino)-3-(2-(phenoxymethyl)morpholinosulfonyl)-1H-indole-2-carboxamide] reads > 100 nM.
Regarding `NC(=O)c1[nH]c2c(NCC3(N)CCCC3)cc(Cl)cc2c1S(=O)(=O)N1CCO[C@H](COc2ccccc2)C1` [Compound 25, (S)-7-((1-aminocyclopentyl)methylamino)-5-chloro-3-(2-(phenoxymethyl)morpholinosulfonyl)-1H-indole-2-carboxamide], the IC50 on human IGF-1R is > 100 nM.
The same measure, in the same setting: under `NC(=O)c1[nH]c2c(NCc3ccc(C(=O)O)cc3)cc(Cl)cc2c1S(=O)(=O)N1CCO[C@H](COc2ccccc2)C1` [Compound 26, (S)-4-((2-carbamoyl-5-chloro-3-(2-(phenoxymethyl)morpholinosulfonyl)-1H-indol-7-ylamino)methyl)benzoic acid] stands < 100 nM; under `CC(C)(C)NC(=O)N1CCC(Nc2cc(Cl)cc3c(S(=O)(=O)N4CCO[C@H](COc5ccccc5)C4)c(C(N)=O)[nH]c23)CC1` [Compound 27, (S)-7-(1-(tert-butylcarbamoyl)piperidin-4-ylamino)-5-chloro-3-(2-(phenoxymethyl)morpholinosulfonyl)-1H-indole-2-carboxamide], 9.8 nM; under `NC(=O)c1[nH]c2c(NC3CCN(C(=O)NCC4CCCCC4)CC3)cc(Cl)cc2c1S(=O)(=O)N1CCO[C@H](COc2ccccc2)C1` [Compound 29, (S)-5-chloro-7-(1-(cyclohexylmethylcarbamoyl)piperidin-4-ylamino)-3-(2-(phenoxymethyl)morpholinosulfonyl)-1H-indole-2-carboxamide], 32.9 nM.
The same measure, in the same setting: under `NC(=O)c1[nH]c2c(NCc3ccc(F)cc3)cc(Cl)cc2c1S(=O)(=O)N1CCO[C@H](COc2ccccc2)C1` [Compound 30, (S)-5-chloro-7-(4-fluorobenzylamino)-3-(2-(phenoxymethyl)morpholinosulfonyl)-1H-indole-2-carboxamide] stands > 100 nM; under `CC(C)CN1CCC(Nc2cc(Cl)cc3c(S(=O)(=O)N4CCO[C@H](COc5ccccc5)C4)c(C(N)=O)[nH]c23)CC1` [Compound 31, (S)-5-chloro-7-(1-isobutylpiperidin-4-ylamino)-3-(2-(phenoxymethyl)morpholinosulfonyl)-1H-indole-2-carboxamide], 39 nM.
As for `NC(=O)c1[nH]c2c(NC3CCNC3)cc(Cl)cc2c1S(=O)(=O)N1CCO[C@H](COc2ccccc2)C1` (stereo partly drawn) [Compound 32, 5-chloro-3-((S)-2-(phenoxymethyl)morpholinosulfonyl)-7-(pyrrolidin-3-ylamino)-1H-indole-2-carboxamide], the IC50 on human IGF-1R was 48.7 nM.
On to `CCOC(=O)N1CCC(Nc2cc(F)cc3c(S(=O)(=O)N4CCO[C@H](COc5ccccc5)C4)c(C(N)=O)[nH]c23)CC1` [Compound 33, (S)-ethyl 4-(2-carbamoyl-5-fluoro-3-(2-(phenoxymethyl)morpholinosulfonyl)-1H-indol-7-ylamino)piperidine-1-carboxylate], for which the IC50 on human IGF-1R was < 100 nM.
For the compound `NC(=O)c1[nH]c2c(NC(=S)Nc3ccccc3)cc(Cl)cc2c1S(=O)(=O)N1CCO[C@H](COc2ccccc2)C1` [Compound 35, (S)-5-chloro-3-(2-(phenoxymethyl)morpholinosulfonyl)-7-(3-phenylthioureido)-1H-indole-2-carboxamide], the inhibition at 10 µM at CYP3A4 is < 40%. The IC50 on human IGF-1R came to 1.3 nM.
Consider `NC(=O)c1[nH]c2c(NC3CCNCC3)cc(Cl)cc2c1S(=O)(=O)N1CCO[C@H](COc2ccccc2)C1` [Compound 36, (S)-5-chloro-3-(2-(phenoxymethyl)morpholinosulfonyl)-7-(piperidin-4-ylamino)-1H-indole-2-carboxamide], for which, at human IGF-1R, the IC50 came to 22 nM.
